Test results taken from US20240252488A1 (KOREA RESEARCH INSTITUTE OF CHEMICAL TECHNOLOGY, priority 2020, published 2024).

What was measured:
FADD−/− Jurkat cells = assay: Necroptosis inhibition assay, TNF-α-induced necroptosis (CellTiter-Glo 2.0); format: cell-based, human; settings: TNF-α 15 ng/mL; for Necroptosis inhibition assay (Rescue %) 1 μM: compound 1 μM; for Necroptosis inhibition assay (Rescue %) 10 μM: compound 10 μM
Outline: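 Luminescent ATP measurement gave viability, from which cytotoxicity and necroptosis inhibition rate were derived. Before that, cells (5.0×10^5 cells/mL) saw compound at 0.1, 1 or 10 μM final for 30 minutes at room temperature, then TNF-α (15 ng/mL final) for 20 to 24 hours at 37° C.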

MLKL [1] = biological target: T1, MLKL (Homo sapiens, UniProt Q8NB16); assay: MLKL degradation assay in HepG2 cell line (western blot); format: cell-based; set-up: endogenous in cells; host or cells: HepG2 or HaCaT; settings: cell line not given; for Degradation assay (Degradation %) 1 μM: compound 1 μM; for Degradation assay (Degradation %) 10 μM: compound 10 μM
T1 sequence (Q8NB16 1-471): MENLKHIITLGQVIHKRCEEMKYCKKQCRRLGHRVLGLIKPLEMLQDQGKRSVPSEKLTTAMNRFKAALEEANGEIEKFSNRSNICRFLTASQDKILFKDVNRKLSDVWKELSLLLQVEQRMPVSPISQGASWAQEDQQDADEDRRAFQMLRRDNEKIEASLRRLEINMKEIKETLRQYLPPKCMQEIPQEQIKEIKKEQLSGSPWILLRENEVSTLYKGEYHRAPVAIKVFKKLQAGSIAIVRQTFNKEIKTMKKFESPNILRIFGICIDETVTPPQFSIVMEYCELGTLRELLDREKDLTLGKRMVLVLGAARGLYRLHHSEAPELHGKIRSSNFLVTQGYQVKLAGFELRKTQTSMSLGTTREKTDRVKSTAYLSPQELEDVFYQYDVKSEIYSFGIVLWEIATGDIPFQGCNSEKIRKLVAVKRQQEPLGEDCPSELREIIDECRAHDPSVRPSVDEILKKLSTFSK
Outline: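 Cells seeded, next day medium swapped for compound-containing medium (final 1 or 10 μM) and incubated 20-24 h at 37 °C. Lysates in RIPA with protease/phosphatase inhibitors were protein-matched by BCA, run on SDS-PAGE and immunoblotted for MLKL.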

MLKL [2] = biological target: T1, MLKL; assay: Measurement of binding affinity with MLKL receptor (competitive binding assay, Kd); set-up: made in house; host or cells: HEK 293 cell line (T7 phage in E. coli BL21-derived host is also described)
Outline: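 HEK 293-expressed, DNA-tagged MLKL; ligand beads blocked with biotin and SeaBlock/1% BSA/0.05% Tween 20/1 mM DTT buffer. Cpd from 111× DMSO stock, 0.9% DMSO final. Eluted kinase by qPCR → Kd.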

| SMILES | Degradation assay (Degradation %) 1 μM (MLKL [1]) [%] | Degradation assay (Degradation %) 10 μM (MLKL [1]) [%] | Kd (MLKL [2]) [nM] | Necroptosis inhibition assay (Rescue %) 1 μM (FADD−/− Jurkat cells) [%] | Necroptosis inhibition assay (Rescue %) 10 μM (FADD−/− Jurkat cells) [%] |
| --- | --- | --- | --- | --- | --- |
| Nc1ncc(-c2cnn(C3CCN(CCC4CCN(c5cccc6nnn(C7CCC(=O)NC7=O)c(=O)c56)CC4)CC3)c2)nc1C(=O)OC(C(=O)Nc1ccc(F)cc1)c1ccccc1 (stereo not shown) [TDH-294, 2-((4-fluorophenyl)amino)-2-oxo-1-phenylethyl 3-amino-6-(1-(1-(2-(1-(3-(2,6-dioxopiperidin-3-yl)-4-oxo-3,4-dihydrobenzo[d][1,2,3]triazin-5-yl)piperidin-4-yl)ethyl)piperidin-4-yl)-1H-pyrazol-4-yl)pyrazine-2-carboxylate] | 25.53 | 23.63 | 4.7 | 67.12 | 33.24 |
| Nc1ncc(-c2cnn(C3CN(CC4CCN(C(=O)CNc5cccc6c5C(=O)N(C5CCC(=O)NC5=O)C6=O)CC4)C3)c2)nc1C(=O)OC(C(=O)Nc1ccc(F)cc1)c1ccccc1 (stereo not shown) [TDH-296, 2-((4-fluorophenyl)amino)-2-oxo-1-phenylethyl 3-amino-6-(1-(1-((1-((2-(2,6-dioxopiperidin-3-yl)-1,3-dioxoisoindolin-4-yl)glycyl)piperidin-4-yl)methyl)azetidin-3-yl)-1H-pyrazol-4-yl)pyrazine-2-carboxylate] | 75.78 | 62.01 | 22 | 25.58 | 26.91 |
| Nc1ncc(-c2cnn(C3CN(CC4CCN(C(=O)CNc5ccc6c(c5)C(=O)N(C5CCC(=O)NC5=O)C6=O)CC4)C3)c2)nc1C(=O)OC(C(=O)Nc1ccc(F)cc1)c1ccccc1 (stereo not shown) [TDH-297, 2-((4-fluorophenyl)amino)-2-oxo-1-phenylethyl 3-amino-6-(1-(1-((1-((2-(2,6-dioxopiperidin-3-yl)-1,3-dioxoisoindolin-5-yl)glycyl)piperidin-4-yl)methyl)azetidin-3-yl)-1H-pyrazol-4-yl)pyrazine-2-carboxylate] | 76.86 | 70.16 | 13 | 74.28 | 63.92 |
| Nc1ncc(-c2cnn(C3CN(CC4CCN(C(=O)COc5cccc6c5C(=O)N(C5CCC(=O)NC5=O)C6=O)CC4)C3)c2)nc1C(=O)OC(C(=O)Nc1ccc(F)cc1)c1ccccc1 (stereo not shown) [TDH-298, 2-((4-fluorophenyl)amino)-2-oxo-1-phenylethyl 3-amino-6-(1-(1-((1-(2-((2-(2,6-dioxopiperidin-3-yl)-1,3-dioxoisoindolin-4-yl)oxy)acetyl)piperidin-4-yl)methyl)azetidin-3-yl)-1H-pyrazol-4-yl)pyrazine-2-carboxylate] | 45.8 | 78.83 | 9.8 | 41.64 | 66.6 |
| Nc1ncc(-c2cnn(C3CN(CC4CCN(C(=O)COc5ccc6c(c5)C(=O)N(C5CCC(=O)NC5=O)C6=O)CC4)C3)c2)nc1C(=O)OC(C(=O)Nc1ccc(F)cc1)c1ccccc1 (stereo not shown) [TDH-299, 2-((4-fluorophenyl)amino)-2-oxo-1-phenylethyl 3-amino-6-(1-(1-((1-(2-((2-(2,6-dioxopiperidin-3-yl)-1,3-dioxoisoindolin-5-yl)oxy)acetyl)piperidin-4-yl)methyl)azetidin-3-yl)-1H-pyrazol-4-yl)pyrazine-2-carboxylate] | 79.84 | 89.54 | 7.2 | 75.61 | 62.7 |
| Nc1ncc(-c2cnn(C3CCN(CCC4CCN(C(=O)COc5ccc6c(c5)C(=O)N(C5CCC(=O)NC5=O)C6=O)CC4)CC3)c2)cc1C(=O)OC(C(=O)Nc1ccc(F)cc1)c1ccccc1 (stereo not shown) [TDH-300, 2-((4-fluorophenyl)amino)-2-oxo-1-phenylethyl 2-amino-5-(1-(1-(2-(1-(2-((2-(2,6-dioxopiperidin-3-yl)-1,3-dioxoisoindolin-5-yl)oxy)acetyl)piperidin-4-yl)ethyl)piperidin-4-yl)-1H-pyrazol-4-yl)nicotinate] | 54.31 | 69.42 | 9 | 55.98 | 38.09 |
| Nc1ncc(-c2cnn(C3CCN(CCC4CCN(C(=O)COc5cccc6c5C(=O)N(C5CCC(=O)NC5=O)C6=O)CC4)CC3)c2)cc1C(=O)OC(C(=O)Nc1ccc(F)cc1)c1ccccc1 (stereo not shown) [TDH-301, 2-((4-fluorophenyl)amino)-2-oxo-1-phenylethyl 2-amino-5-(1-(1-(2-(1-(2-((2-(2,6-dioxopiperidin-3-yl)-1,3-dioxoisoindolin-4-yl)oxy)acetyl)piperidin-4-yl)ethyl)piperidin-4-yl)-1H-pyrazol-4-yl)nicotinate] | 76.3 | 89.97 | 2.9 | 61.06 | 26.7 |

Second part, led by results:

| Degradation assay (Degradation %) 1 μM (MLKL [1]) [%] | Degradation assay (Degradation %) 10 μM (MLKL [1]) [%] | Kd (MLKL [2]) [nM] | SMILES | Necroptosis inhibition assay (Rescue %) 1 μM (FADD−/− Jurkat cells) [%] | Necroptosis inhibition assay (Rescue %) 10 μM (FADD−/− Jurkat cells) [%] |
| --- | --- | --- | --- | --- | --- |
| 70.94 | 48.11 | 6.7 | Nc1ncc(-c2cnn(C3CCN(CCC4CCN(C(=O)C5CN(c6ccc7nnn(C8CCC(=O)NC8=O)c(=O)c7c6)C5)CC4)CC3)c2)nc1C(=O)OC(C(=O)Nc1ccc(F)cc1)c1ccccc1 (stereo not shown) [TDH-291, 2-((4-fluorophenyl)amino)-2-oxo-1-phenylethyl 3-amino-6-(1-(1-(2-(1-(1-(3-(2,6-dioxopiperidin-3-yl)-4-oxo-3,4-dihydrobenzo[d][1,2,3]triazin-6-yl)azetidine-3-carbonyl)piperidin-4-yl)ethyl)piperidin-4-yl)-1H-pyrazol-4-yl)pyrazine-2-carboxylate] | 87.96 | 64.92 |
| 79.96 | 81.68 | 2.3 | Nc1ncc(-c2cnn(C3CCN(CCC4CCN(C(=O)CNc5ccc6nnn(C7CCC(=O)NC7=O)c(=O)c6c5)CC4)CC3)c2)nc1C(=O)OC(C(=O)Nc1ccc(F)cc1)c1ccccc1 (stereo not shown) [TDH-292, 2-((4-fluorophenyl)amino)-2-oxo-1-phenylethyl 3-amino-6-(1-(1-(2-(1-((3-(2,6-dioxopiperidin-3-yl)-4-oxo-3,4-dihydrobenzo[d][1,2,3]triazin-6-yl)glycyl)piperidin-4-yl)ethyl)piperidin-4-yl)-1H-pyrazol-4-yl)pyrazine-2-carboxylate] | 78.15 | 73.02 |
| 76.09 | 71.04 | 2.3 | Nc1ncc(-c2cnn(C3CCN(CCC4CCN(C(=O)COc5ccc6nnn(C7CCC(=O)NC7=O)c(=O)c6c5)CC4)CC3)c2)nc1C(=O)OC(C(=O)Nc1ccc(F)cc1)c1ccccc1 (stereo not shown) [TDH-293, 2-((4-fluorophenyl)amino)-2-oxo-1-phenylethyl 3-amino-6-(1-(1-(2-(1-(2-((3-(2,6-dioxopiperidin-3-yl)-4-oxo-3,4-dihydrobenzo[d][1,2,3]triazin-6-yl)oxy)acetyl)piperidin-4-yl)ethyl)piperidin-4-yl)-1H-pyrazol-4-yl)pyrazine-2-carboxylate] | 108.66 | 87.1 |
| 70.94 | 57.99 | 8.1 | Nc1ncc(-c2cnn(C3CCN(CCC4CCN(c5ccc6nnn(C7CCC(=O)NC7=O)c(=O)c6c5)CC4)CC3)c2)nc1C(=O)OC(C(=O)Nc1ccc(F)cc1)c1ccccc1 (stereo not shown) [TDH-295, 2-((4-fluorophenyl)amino)-2-oxo-1-phenylethyl 3-amino-6-(1-(1-(2-(1-(3-(2,6-dioxopiperidin-3-yl)-4-oxo-3,4-dihydrobenzo[d][1,2,3]triazin-6-yl)piperidin-4-yl)ethyl)piperidin-4-yl)-1H-pyrazol-4-yl)pyrazine-2-carboxylate] | 63.46 | 37.73 |
